In PubChem BioAssay (NCI):
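GI50 = concentration required for 50% inhibition of growth. The concentration for full growth arrest is given as TGI.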

How the values were obtained:
Experiment in all cases: NCI-60 cell line screen, 384-well format
OVCAR-8 ovarian = system: OVCAR-8 ovarian
HS 578T breast = system: HS 578T breast
UACC-257 melanoma = system: UACC-257 melanoma
A549 NSCLC = system: A549 NSCLC
SNB-19 CNS = system: SNB-19 CNS
NCI-H322M lung = system: NCI-H322M lung
LOX IMVI melanoma = system: LOX IMVI melanoma
MDA-MB-435 melanoma = system: MDA-MB-435 melanoma
SK-MEL-5 melanoma = system: SK-MEL-5 melanoma
NCI/ADR-RES ovarian = system: NCI/ADR-RES ovarian
HCT-15 colon = system: HCT-15 colon
SNB-75 CNS = system: SNB-75 CNS
NCI-H460 NSCLC = system: NCI-H460 NSCLC
HL-60(TB) leukemia = system: HL-60(TB) leukemia
COLO 205 colon = system: COLO 205 colon
HCC-2998 colon = system: HCC-2998 colon
NCI-H522 lung = system: NCI-H522 lung
NCI-H23 lung = system: NCI-H23 lung
A498 renal = system: A498 renal
NCI-H226 lung = system: NCI-H226 lung
OVCAR-5 ovarian = system: OVCAR-5 ovarian
UACC-62 melanoma = system: UACC-62 melanoma
SR leukemia = system: SR leukemia
BT-549 breast = system: BT-549 breast
SN12C renal = system: SN12C renal
PC-3 prostate = system: PC-3 prostate
MDA-MB-468 breast = system: MDA-MB-468 breast
CAKI-1 renal = system: CAKI-1 renal
U251 glioblastoma = system: U251 glioblastoma
DU-145 prostate = system: DU-145 prostate
ACHN renal = system: ACHN renal
KM12 colon = system: KM12 colon
EKVX NSCLC = system: EKVX NSCLC
SK-OV-3 ovarian = system: SK-OV-3 ovarian
MALME-3M melanoma = system: MALME-3M melanoma
RPMI-8226 leukemia = system: RPMI-8226 leukemia
HT29 colon = system: HT29 colon
OVCAR-3 ovarian = system: OVCAR-3 ovarian
IGROV1 ovarian = system: IGROV1 ovarian
MCF7 breast = system: MCF7 breast
TK-10 renal = system: TK-10 renal
SF-539 CNS = system: SF-539 CNS
SF-295 CNS = system: SF-295 CNS
MOLT-4 leukemia = system: MOLT-4 leukemia
RXF 393 renal = system: RXF 393 renal
MDA-MB-231 breast = system: MDA-MB-231 breast
T-47D breast = system: T-47D breast
HOP-92 NSCLC = system: HOP-92 NSCLC
SF-268 CNS = system: SF-268 CNS
SK-MEL-28 melanoma = system: SK-MEL-28 melanoma
OVCAR-4 ovarian = system: OVCAR-4 ovarian
HCT-116 colon = system: HCT-116 colon
M14 melanoma = system: M14 melanoma
HOP-62 NSCLC = system: HOP-62 NSCLC

O=C1Nc2ccc(CN3CCOC3=O)cc2/C1=C/c1cc(CN2CCOCC2)c[nH]1
GI50 (OVCAR-8 ovarian): 37.8 µM
TGI (OVCAR-8 ovarian): > 100 µM
GI50 (HS 578T breast): 64.6 µM
TGI (HS 578T breast): > 100 µM
GI50 (UACC-257 melanoma): 35.6 µM
TGI (UACC-257 melanoma): > 100 µM
GI50 (A549 NSCLC): 49.7 µM
TGI (A549 NSCLC): > 100 µM
GI50 (SNB-19 CNS): 63.3 µM
TGI (SNB-19 CNS): > 100 µM
GI50 (NCI-H322M lung): 43.7 µM
TGI (NCI-H322M lung): > 100 µM
GI50 (LOX IMVI melanoma): 28.7 µM
TGI (LOX IMVI melanoma): 68.3 µM
GI50 (MDA-MB-435 melanoma): 25.5 µM
TGI (MDA-MB-435 melanoma): 76.7 µM
GI50 (SK-MEL-5 melanoma): 15.7 µM
TGI (SK-MEL-5 melanoma): 30.8 µM
GI50 (NCI/ADR-RES ovarian): 30 µM
TGI (NCI/ADR-RES ovarian): 83.9 µM
GI50 (HCT-15 colon): 27.9 µM
TGI (HCT-15 colon): 93.1 µM
GI50 (SNB-75 CNS): 86 µM
TGI (SNB-75 CNS): > 100 µM
GI50 (NCI-H460 NSCLC): 19.6 µM
TGI (NCI-H460 NSCLC): 40 µM
GI50 (HL-60(TB) leukemia): 16.3 µM
TGI (HL-60(TB) leukemia): 30 µM
GI50 (COLO 205 colon): 49.2 µM
TGI (COLO 205 colon): > 100 µM
GI50 (HCC-2998 colon): 30.1 µM
TGI (HCC-2998 colon): 68.1 µM
GI50 (NCI-H522 lung): 21.6 µM
TGI (NCI-H522 lung): 55.2 µM
GI50 (NCI-H23 lung): 25.2 µM
TGI (NCI-H23 lung): > 100 µM
GI50 (A498 renal): > 100 µM
TGI (A498 renal): > 100 µM
GI50 (NCI-H226 lung): 33.3 µM
TGI (NCI-H226 lung): 83 µM
GI50 (OVCAR-5 ovarian): > 100 µM
TGI (OVCAR-5 ovarian): > 100 µM
GI50 (UACC-62 melanoma): 45.1 µM
TGI (UACC-62 melanoma): > 100 µM
GI50 (SR leukemia): 14 µM
TGI (SR leukemia): 30.6 µM
GI50 (BT-549 breast): 24.5 µM
TGI (BT-549 breast): 58.9 µM
GI50 (SN12C renal): 27.1 µM
TGI (SN12C renal): > 100 µM
GI50 (PC-3 prostate): 35.3 µM
TGI (PC-3 prostate): 98.1 µM
GI50 (MDA-MB-468 breast): 23 µM
TGI (MDA-MB-468 breast): 85.1 µM
GI50 (CAKI-1 renal): 58.5 µM
TGI (CAKI-1 renal): > 100 µM
GI50 (U251 glioblastoma): 42.2 µM
TGI (U251 glioblastoma): > 100 µM
GI50 (DU-145 prostate): 45.9 µM
TGI (DU-145 prostate): > 100 µM
GI50 (ACHN renal): 77.9 µM
TGI (ACHN renal): > 100 µM
GI50 (KM12 colon): 5.29 µM
TGI (KM12 colon): > 100 µM
GI50 (EKVX NSCLC): 38.2 µM
TGI (EKVX NSCLC): > 100 µM
GI50 (SK-OV-3 ovarian): 43.5 µM
TGI (SK-OV-3 ovarian): > 100 µM
GI50 (MALME-3M melanoma): > 100 µM
TGI (MALME-3M melanoma): > 100 µM
GI50 (RPMI-8226 leukemia): 18.2 µM
TGI (RPMI-8226 leukemia): 39.8 µM
GI50 (HT29 colon): 30.4 µM
TGI (HT29 colon): > 100 µM
GI50 (OVCAR-3 ovarian): 40.3 µM
TGI (OVCAR-3 ovarian): > 100 µM
GI50 (IGROV1 ovarian): 43.4 µM
TGI (IGROV1 ovarian): > 100 µM
GI50 (MCF7 breast): 33.1 µM
TGI (MCF7 breast): > 100 µM
GI50 (TK-10 renal): 43.3 µM
TGI (TK-10 renal): > 100 µM
GI50 (SF-539 CNS): 53.8 µM
TGI (SF-539 CNS): > 100 µM
GI50 (SF-295 CNS): 33.8 µM
TGI (SF-295 CNS): > 100 µM
GI50 (MOLT-4 leukemia): 20.5 µM
TGI (MOLT-4 leukemia): 36.5 µM
GI50 (RXF 393 renal): 96.3 µM
TGI (RXF 393 renal): > 100 µM
GI50 (MDA-MB-231 breast): 58.8 µM
TGI (MDA-MB-231 breast): > 100 µM
GI50 (T-47D breast): 17.5 µM
TGI (T-47D breast): 44 µM
GI50 (HOP-92 NSCLC): > 100 µM
TGI (HOP-92 NSCLC): > 100 µM
GI50 (SF-268 CNS): 49.9 µM
TGI (SF-268 CNS): > 100 µM
GI50 (SK-MEL-28 melanoma): 71.8 µM
TGI (SK-MEL-28 melanoma): > 100 µM
GI50 (OVCAR-4 ovarian): 33.5 µM
TGI (OVCAR-4 ovarian): 93.3 µM
GI50 (HCT-116 colon): 41.2 µM
TGI (HCT-116 colon): > 100 µM
GI50 (M14 melanoma): 49 µM
TGI (M14 melanoma): > 100 µM
GI50 (HOP-62 NSCLC): 31.6 µM
TGI (HOP-62 NSCLC): 75.9 µM
